Measured values taken from patent US8455544B2, “Synthetic triterpenoids and methods of use in the treatment of disease” (Reata Pharmaecuticals, Inc., priority 2008, dated 2013).
Read-outs that look alike come from different tables or passages of the source.

Assays:
[1] = design: unit not given here; settings: six-month, cited from earlier work
[2] = test system: IFNγ-induced NO production in RAW264.7 macrophages; assay: Suppression of IFNγ-induced NO production (Griess reagent system); type: cell-based; settings: Mus musculus; RAW264.7, pre-treated 2 hours, then 20 ng/ml IFNγ for 24 hours
[3] = test system: RAW264.7 macrophages; assay: Cell viability, WST-1 reagent; type: cell-based; settings: Mus musculus, RAW264.7 (20 ng/ml IFNγ)
[4] = test system: NQO1 in Hepa1c1c7 murine hepatoma cells; settings: concentration required to induce a two-fold increase in expression of NQO1, Hepa1c1c7 cells; cited from earlier work
[5] = cynomolgus monkey, in vivo, po, 4.1 mg/kg

Molecule | IC50 [2] [nM] | IC50 [3] [nM] | NQO1 CD [4] [nM] | also measured
Pramlintide acetate |  |  |  | Change (Hemoglobin A1c) ([1]; +/− insulin, mean A1c 9.1, duration of DM 13 years): −0.4
N[C@@H](CC(=O)N1CCn2c(nnc2C(F)(F)F)C1)Cc1cc(F)c(F)cc1F [Sitagliptin] |  |  |  | Change (Hemoglobin A1c) ([1]; +/− metformin with A1c ≧ 7.5, mean A1c 8.9, duration of DM 4.4 years): −0.7; Change (Hemoglobin A1c) ([1]; +/− placebo with A1c ≧ 7.0, mean A1c 8.0, duration of DM 4.3 years): −0.8; Change (Hemoglobin A1c) ([1]; pioglitazone +/− sitagliptin, A1c ≧ 7.0, mean A1c 8.1, duration of DM 6.1 years): −0.7
CC1(C)CC[C@]2(C(=O)n3ccnc3)CC[C@]3(C)[C@H](C(=O)C=C4[C@@]5(C)C=C(C#N)C(=O)C(C)(C)[C@@H]5CC[C@]43C)[C@@H]2C1 [RTA 403] | ~0.6 | 100 | 3.3 | 
CC1(C)CC[C@]2(C#N)CC[C@]3(C)[C@H](C(=O)C=C4[C@@]5(C)C=C(C#N)C(=O)C(C)(C)[C@@H]5CC[C@]43C)[C@@H]2C1 [TP-225] | ~0.4 | 75 | 0.28 | 
CC1(C)CC[C@]2(C(=O)NCC(F)(F)F)CC[C@]3(C)[C@H](C(=O)C=C4[C@@]5(C)C=C(C#N)C(=O)C(C)(C)[C@@H]5CC[C@]43C)[C@@H]2C1 [RTA 404] | 5.8 | 100 |  | 
CCNC(=O)[C@]12CCC(C)(C)C[C@H]1[C@H]1C(=O)C=C3[C@@]4(C)C=C(C#N)C(=O)C(C)(C)[C@@H]4CC[C@@]3(C)[C@]1(C)CC2 [RTA 405] | 6 | ~200 |  | 
COC(=O)[C@]12CCC(C)(C)C[C@H]1[C@H]1C(=O)C=C3[C@@]4(C)C=C(C#N)C(=O)C(C)(C)[C@@H]4CC[C@@]3(C)[C@]1(C)CC2 [Form B] |  |  |  | Bioavailability compared with Form A [5]: higher
CC1(C)CC[C@]2(C(=O)O)CC[C@]3(C)[C@H](C(=O)C=C4[C@@]5(C)C=C(C#N)C(=O)C(C)(C)[C@@H]5CC[C@]43C)[C@@H]2C1 [RTA 401, 2-cyano-3,12-dioxooleane-1,9(11)-dien-28-oic acid] | ~10 | > 200 | 2.3 | 
